Measured values as given in ChEMBL document CHEMBL3272187, “Synthesis of N-hydroxyacetaminophen, a postulated toxic metabolite of acetaminophen, and its phenolic sulfate conjugate” (J Med Chem, 1978).

Tests used:
Format in all cases: physicochemical
[1] = Aqueous stability of the compound in 100 mM HCl buffer assessed as half life at 2 mM at pH 1.5 at 37 degC by ferric chloride assay
[2] = Aqueous stability of the compound in 100 mM Na2HPO4 buffer assessed as half life at 2 mM at pH 6.6 at 37 degC by ferric chloride assay
[3] = Aqueous stability of the compound in 100 mM Na2HPO4 buffer assessed as half life at 2 mM at pH 7.0 at 37 degC by ferric chloride assay
[4] = Aqueous stability of the compound in 100 mM Na2HPO4 buffer assessed as half life at 2 mM at pH 7.2 at 37 degC by ferric chloride assay
[5] = Aqueous stability of the compound in 100 mM Na2HPO4 buffer assessed as half life at 2 mM at pH 8.0 at 37 degC by ferric chloride assay
[6] = Aqueous stability of the compound in 100 mM NaOH buffer at 2 mM at pH 12.7 at 37 degC by ferric chloride assay; details: pH 12.7, 2000 µM
[7] = Aqueous stability of the compound in 100 mM Na2HPO4 buffer assessed as half life at 2 mM at pH 8.5 at 37 degC by ferric chloride assay

Row | half-life at 2000 µM [1] [h] | half-life at 2000 µM [2] [h] | half-life at 2000 µM [3] [h] | half-life at 2000 µM [4] [h] | half-life at 2000 µM [5] [min] | Stability [6] | half-life at 2000 µM [7] [h] | SMILES
1 | 18.3 | 2.5 | 1.1 | 0.35 | 9.8 | Stable |  | CC(=O)N(O)c1ccc(O)cc1
2 | 15.2 |  |  |  |  | Stable | 217 | CC(=O)N(O)c1ccc(OS(=O)(=O)[O-])cc1.[K+]
